The numbers were not newly measured in US20110207819A1, “Fat Emulsion for Artificially Feeding Seriously Ill Intensive Care Patients” (B. BRAUN MELSUNGEN AG, priority 2008, published 2011), which cites them from elsewhere.

The subject of this series is CIP/CIM. Conditions: intensified insulin therapy; intensive care patients.

With insulin, the “decrease of the incidence of CIP/CIM” value is given as 44%.
